One block for each compound: values may come before it.
Key:
[1] = target: T1, Amine oxidase [flavin-containing] B (Homo sapiens, UniProt P27338); experiment: Mixed type inhibition of recombinant human MAO-B expressed in baculovirus infected BT1 cells using benzylamine as substrate at 200 uM preincubated for 30 mins by Lineweaver-Burk plot analysis
T1 sequence (P27338 whole entry): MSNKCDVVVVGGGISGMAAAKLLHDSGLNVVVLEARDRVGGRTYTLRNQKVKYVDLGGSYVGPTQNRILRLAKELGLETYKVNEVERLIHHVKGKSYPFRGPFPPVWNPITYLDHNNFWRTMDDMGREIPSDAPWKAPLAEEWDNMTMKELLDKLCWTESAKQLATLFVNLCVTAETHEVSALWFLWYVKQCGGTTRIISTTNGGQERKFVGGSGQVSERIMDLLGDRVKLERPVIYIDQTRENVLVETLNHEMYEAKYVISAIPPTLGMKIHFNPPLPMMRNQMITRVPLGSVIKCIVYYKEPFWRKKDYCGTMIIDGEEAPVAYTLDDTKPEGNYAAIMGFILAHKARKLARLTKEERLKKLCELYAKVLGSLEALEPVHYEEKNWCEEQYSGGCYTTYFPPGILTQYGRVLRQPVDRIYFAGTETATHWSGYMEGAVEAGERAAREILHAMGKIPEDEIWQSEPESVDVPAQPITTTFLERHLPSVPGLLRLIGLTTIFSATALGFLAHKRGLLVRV

[2] = target: T1, Amine oxidase [flavin-containing] B; experiment: Reversible inhibition of recombinant human MAO-B expressed in baculovirus infected BT1 cells using benzylamine as substrate at 200 uM preincubated for 30 mins by Lineweaver-Burk plot analysis
[3] = target: T2, Amine oxidase [flavin-containing] A (Homo sapiens, UniProt P21397); experiment: Reversible inhibition of recombinant human MAO-A expressed in baculovirus infected BT1 cells using p-tyramine as substrate by Lineweaver-Burk plot analysis
T2 sequence (P21397 whole entry): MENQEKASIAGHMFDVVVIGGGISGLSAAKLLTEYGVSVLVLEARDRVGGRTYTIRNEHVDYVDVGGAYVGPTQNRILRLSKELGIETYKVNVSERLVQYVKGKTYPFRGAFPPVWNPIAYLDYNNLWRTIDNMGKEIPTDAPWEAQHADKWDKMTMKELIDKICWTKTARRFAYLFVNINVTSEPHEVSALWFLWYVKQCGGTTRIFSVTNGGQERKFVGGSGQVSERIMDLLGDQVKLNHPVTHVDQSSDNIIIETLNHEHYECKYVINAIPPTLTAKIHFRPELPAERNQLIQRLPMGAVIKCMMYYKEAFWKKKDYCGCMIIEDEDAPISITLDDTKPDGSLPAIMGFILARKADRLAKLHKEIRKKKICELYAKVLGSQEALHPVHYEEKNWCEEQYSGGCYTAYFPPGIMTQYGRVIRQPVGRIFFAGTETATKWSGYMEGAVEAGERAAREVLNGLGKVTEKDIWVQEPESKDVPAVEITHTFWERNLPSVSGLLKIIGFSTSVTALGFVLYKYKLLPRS

[4] = target: T2, Amine oxidase [flavin-containing] A; experiment: Mixed type inhibition of recombinant human MAO-A expressed in baculovirus infected BT1 cells using p-tyramine as substrate by Lineweaver-Burk plot analysis
[5] = target: T1, Amine oxidase [flavin-containing] B; experiment: Ratio of relative Vmax to Km for recombinant human MAO-B expressed in baculovirus infected BT1 cells assessed as hydrogen peroxide generation rate using benzylamine as substrate at 200 uM preincubated for 30 mins by Amplex Red assay
[6] = target: T2, Amine oxidase [flavin-containing] A; experiment: Activity at recombinant human MAO-A expressed in baculovirus infected BT1 cells assessed as hydrogen peroxide generation rate per min/mg using p-tyramine as substrate at 200 uM preincubated for 30 mins by Amplex Red assay relative to control
[7] = target: T1, Amine oxidase [flavin-containing] B; experiment: Activity at recombinant human MAO-B expressed in baculovirus infected BT1 cells assessed as hydrogen peroxide generation rate per min/mg using benzylamine as substrate at 200 uM preincubated for 30 mins by Amplex Red assay relative to control
[8] = target: T2, Amine oxidase [flavin-containing] A; experiment: Ratio of relative Vmax to Km for recombinant human MAO-A expressed in baculovirus infected BT1 cells assessed as hydrogen peroxide generation rate using p-tyramine as substrate at 200 uM preincubated for 30 mins by Amplex Red assay
[9] = target: T1, Amine oxidase [flavin-containing] B; experiment: Activity at recombinant human MAO-B expressed in baculovirus infected BT1 cells assessed as hydrogen peroxide generation rate using benzylamine as substrate at 500 uM preincubated for 30 mins by Amplex Red assay relative to control
[10] = target: T1, Amine oxidase [flavin-containing] B; experiment: Ratio of relative Vmax to Km for recombinant human MAO-B expressed in baculovirus infected BT1 cells assessed as hydrogen peroxide generation rate using benzylamine as substrate at 500 uM preincubated for 30 mins by Amplex Red assay
[11] = target: T1, Amine oxidase [flavin-containing] B; experiment: Activity at recombinant human MAO-B expressed in baculovirus infected BT1 cells assessed as hydrogen peroxide generation rate using benzylamine as substrate at 500 uM preincubated for 30 mins by Amplex Red assay
[12] = target: T2, Amine oxidase [flavin-containing] A; experiment: Activity at recombinant human MAO-A expressed in baculovirus infected BT1 cells assessed as hydrogen peroxide generation rate using p-tyramine as substrate at 500 uM preincubated for 30 mins by Amplex Red assay relative to control
[13] = target: T2, Amine oxidase [flavin-containing] A; experiment: Ratio of relative Vmax to Km for recombinant human MAO-A expressed in baculovirus infected BT1 cells assessed as hydrogen peroxide generation rate using p-tyramine as substrate at 500 uM preincubated for 30 mins by Amplex Red assay
[14] = target: T2, Amine oxidase [flavin-containing] A; experiment: Activity at recombinant human MAO-A expressed in baculovirus infected BT1 cells assessed as hydrogen peroxide generation rate using p-tyramine as substrate at 500 uM preincubated for 30 mins by Amplex Red assay
[15] = target: T1, Amine oxidase [flavin-containing] B; experiment: Activity at recombinant human MAO-B expressed in baculovirus infected BT1 cells assessed as hydrogen peroxide generation rate preincubated for 30 mins by Amplex Red assay relative to control
[16] = target: T1, Amine oxidase [flavin-containing] B; experiment: Ratio of relative Vmax to Km for recombinant human MAO-B expressed in baculovirus infected BT1 cells assessed as hydrogen peroxide generation rate preincubated for 30 mins by Amplex Red assay; details: 0.5 h
[17] = target: T2, Amine oxidase [flavin-containing] A; experiment: Activity at recombinant human MAO-A expressed in baculovirus infected BT1 cells assessed as hydrogen peroxide generation rate preincubated for 30 mins by Amplex Red assay relative to control
[18] = target: T2, Amine oxidase [flavin-containing] A; experiment: Ratio of relative Vmax to Km for recombinant human MAO-A expressed in baculovirus infected BT1 cells assessed as hydrogen peroxide generation rate preincubated for 30 mins by Amplex Red assay; details: 0.5 h
[19] = target: T2, Amine oxidase [flavin-containing] A; experiment: Activity at recombinant human MAO-A expressed in baculovirus infected BT1 cells assessed as hydrogen peroxide generation rate preincubated for 30 mins by Amplex Red assay; details: 0.5 h
[20] = Cytotoxicity against human SH-SY5Y cells after 24 hrs by Annexin V-PE-based flow cytometry; type: cell-based; details: for IC50: Homo sapiens, SH-SY5Y; for Activity: human, sh-sy5y
[21] = target: T1, Amine oxidase [flavin-containing] B; experiment: Ratio of residual Vmax to Km for recombinant human MAO-B expressed in baculovirus infected BT1 cells assessed as residual activity using benzylamine as substrate at 20 uM preincubated for 30 mins by Amplex Red assay
[22] = target: T2, Amine oxidase [flavin-containing] A; experiment: Ratio of residual Vmax to Km for recombinant human MAO-A expressed in baculovirus infected BT1 cells assessed as residual activity using benzylamine as substrate at 20 uM preincubated for 30 mins by Amplex Red assay
[23] = target: T2, Amine oxidase [flavin-containing] A; experiment: Inhibition of recombinant human MAO-A expressed in baculovirus infected BT1 cells assessed as residual activity using p-tyramine as substrate at 50 uM at 37 degC
[24] = target: T2, Amine oxidase [flavin-containing] A; experiment: Inhibition of recombinant human MAO-A expressed in baculovirus infected BT1 cells assessed as residual activity using p-tyramine as substrate at 50 uM at 25 degC
[25] = target: T2, Amine oxidase [flavin-containing] A; experiment: Competitive inhibition of MAOA in human SH-SY5Y cells using p-tyramine as substrate preincubated for 5 mins by Lineweaver-Burk plot analysis; type: cell-based
[26] = target: T2, Amine oxidase [flavin-containing] A; experiment: Inhibition of recombinant human MAO-A expressed in baculovirus infected BT1 cells assessed as residual activity using p-tyramine as substrate at 100 uM after 10 mins; details: read-out: Activity
[27] = target: T2, Amine oxidase [flavin-containing] A; experiment: Inhibition of recombinant human MAO-A expressed in baculovirus infected BT1 cells assessed as residual activity using p-tyramine as substrate at 100 uM preincubated for 24 hrs measured after 10 mins; details: read-out: Activity
[28] = target: T2, Amine oxidase [flavin-containing] A; experiment: Inhibition of recombinant human MAO-A expressed in baculovirus infected BT1 cells using p-tyramine as substrate at 20 to 240 uM by Lineweaver-Burk plot analysis
[29] = target: T2, Amine oxidase [flavin-containing] A; experiment: Inhibition of recombinant human MAO-A expressed in baculovirus infected BT1 cells using p-tyramine as substrate after 20 to 80 mins by Lineweaver-Burk plot analysis
[30] = target: T1, Amine oxidase [flavin-containing] B; experiment: biochemical; type: cell-based
[31] = target: T2, Amine oxidase [flavin-containing] A; experiment: Irreversible inhibition of recombinant human MAO-A expressed in baculovirus infected BT1 cells using p-tyramine as substrate by Lineweaver-Burk plot analysis
[32] = target: T1, Amine oxidase [flavin-containing] B; experiment: Activity at recombinant human MAO-B expressed in baculovirus infected BT1 cells assessed as hydrogen peroxide generation rate preincubated for 30 mins by Amplex Red assay

Compound: NCCCNCCCCNCCCNCc1ccccc1
Ki [1]: 291 µM
Ki [2]: 785 µM
Ki [3]: 188 µM
Ki [4]: 170 µM
fold change (FC) [5]: 0.66
fold change (FC) [6]: 0.48
fold change (FC) [7]: 0.97
fold change (FC) [8]: 0.38

Compound: NCCCCCCCCNCCCNCc1cccs1
fold change (FC) [5]: 0.75
fold change (FC) [9]: < 0.01
fold change (FC) [10]: < 0.01
Km [11]: < 0.01 µM
fold change (FC) [12]: < 0.01
fold change (FC) [13]: < 0.01
Km [14]: < 0.01 µM
fold change (FC) [6]: 0.96
fold change (FC) [7]: 0.71
fold change (FC) [8]: 0.69

Compound: NCCCOCCCCOCCCNCc1cccs1
fold change (FC) [15]: 0.19
fold change (FC) [16]: 0.21
fold change (FC) [18]: 0.06
Km [19]: > 1200 µM

Compound: CN(CCCCCCCCCCCCN=C=S)Cc1ccccc1
IC50 [20]: 180 µM
Activity [20]: Dose-dependent effect
fold change (FC) [21]: 0.2
fold change (FC) [22]: 0.22
kinact [23]: 0.00075 s⁻¹
kinact [24]: 0.0002 s⁻¹
Ki [25]: 4.9 µM
activity at 100 µM [26]: 64%
activity at 100 µM [27]: 100%
inhibition (INH) [28]: Dose-dependent effect
inhibition (INH) [29]: Dose-dependent effect
Ki [30]: 9 µM
Ki [31]: 5 µM

Compound: NCCCNCCCCNCCCNCc1ccc2ccccc2c1
fold change (FC) [5]: 0.91
fold change (FC) [6]: 0.52
fold change (FC) [7]: 0.81
Activity [32]: Not Active
fold change (FC) [8]: 0.62
Activity [19]: Not Active

Compound: NCCCNCCCCNCCCNCc1cccnc1
fold change (FC) [5]: 0.72
fold change (FC) [6]: 0.52
fold change (FC) [7]: 0.93
Activity [32]: Not Active
fold change (FC) [8]: 0.72
Activity [19]: Not Active

Compound: NCCCNCCCCNCCCNCc1cccs1
Ki [1]: 23 µM
Ki [2]: 414 µM
Ki [3]: 997 µM
Ki [4]: 226 µM
fold change (FC) [5]: 0.05
fold change (FC) [6]: 0.52
fold change (FC) [7]: 0.63
Activity [32]: Not Active
fold change (FC) [8]: 0.57
Activity [19]: Not Active

Compound: C=CCN=C=S [ALLYL ISOTHIOCYANATE]
fold change (FC) [21]: 0.98
fold change (FC) [22]: 1

Compound: NCCCNCCCCNCCCN [SPERMINE]
fold change (FC) [5]: 0.76
fold change (FC) [6]: 0.77
fold change (FC) [7]: 0.98
fold change (FC) [8]: 0.86

Compound: C[S+]([O-])CCCCN=C=S (stereo not drawn) [SULFORAPHANE]
IC50 [20]: 20 µM
fold change (FC) [21]: 1.01
fold change (FC) [22]: 0.78

Now from value to compound, other results behind:

fold change (FC) [15]: 0.53
fold change (FC) [16]: 12
fold change (FC) [17]: 0.1
fold change (FC) [18]: 0.29
Compound: NCCCCCCCCCCCCNCc1cccs1

fold change (FC) [15]: 1
fold change (FC) [16]: 18.6
fold change (FC) [17]: 0.08
fold change (FC) [18]: 0.4
Compound: NCCCCCCCCCCCCNCc1ccccc1
IC50 [20]: 327 µM
Activity [20]: Dose-dependent effect

fold change (FC) [15]: 0.24
fold change (FC) [16]: 17.5
fold change (FC) [17]: 0.03
fold change (FC) [18]: 0.6
Compound: CN(CCCCCCCCCCCCN)Cc1ccccc1

Ki [1]: 129 µM
Ki [2]: 1050 µM
Ki [3]: 186 µM
Ki [4]: 55 µM
fold change (FC) [5]: 0.37
fold change (FC) [6]: 0.52
fold change (FC) [7]: 0.62
fold change (FC) [8]: 0.29
Compound: c1ccc(CNCCCCCCCCCCCCNCc2ccccc2)cc1
